Source: PubChem BioAssay (NCI)
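96-well plates; 48 h exposure; 5 concentrations. Endpoints by linear interpolation between flanking doses. Not reached: highest tested concentration assigned. The concentration for full growth arrest is given as TGI.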

Experiments:
Test in all cases: inhibition of tumour cell growth, NCI panel, 48 h
786-0 renal = system: 786-0 renal
A498 renal = system: A498 renal
ACHN renal = system: ACHN renal
BT-549 breast = system: BT-549 breast
CAKI-1 renal = system: CAKI-1 renal
CCRF-CEM leukemia = system: CCRF-CEM leukemia
COLO 205 colon = system: COLO 205 colon
DU-145 prostate = system: DU-145 prostate
EKVX NSCLC = system: EKVX NSCLC
HCC-2998 colon = system: HCC-2998 colon
HCT-116 colon = system: HCT-116 colon
HCT-15 colon = system: HCT-15 colon
HL-60(TB) leukemia = system: HL-60(TB) leukemia
HOP-62 NSCLC = system: HOP-62 NSCLC
HOP-92 NSCLC = system: HOP-92 NSCLC
HS 578T breast = system: HS 578T breast
HT29 colon = system: HT29 colon
IGROV1 ovarian = system: IGROV1 ovarian
K-562 leukemia = system: K-562 leukemia
KM12 colon = system: KM12 colon
LOX IMVI melanoma = system: LOX IMVI melanoma
M14 melanoma = system: M14 melanoma
MALME-3M melanoma = system: MALME-3M melanoma
MCF7 breast = system: MCF7 breast
MDA-MB-231 breast = system: MDA-MB-231 breast
MDA-MB-435 = system: MDA-MB-435
MDA-N = system: MDA-N
MOLT-4 leukemia = system: MOLT-4 leukemia
NCI-H226 lung = system: NCI-H226 lung
NCI-H23 lung = system: NCI-H23 lung
NCI-H460 lung = system: NCI-H460 lung
NCI-H522 lung = system: NCI-H522 lung
NCI/ADR-RES ovarian = system: NCI/ADR-RES ovarian
OVCAR-3 ovarian = system: OVCAR-3 ovarian
OVCAR-5 ovarian = system: OVCAR-5 ovarian
OVCAR-8 ovarian = system: OVCAR-8 ovarian
PC-3 prostate = system: PC-3 prostate
RPMI-8226 leukemia = system: RPMI-8226 leukemia
RXF 393 renal = system: RXF 393 renal
SF-268 CNS = system: SF-268 CNS
SF-539 CNS = system: SF-539 CNS
SK-MEL-28 melanoma = system: SK-MEL-28 melanoma
SK-MEL-5 melanoma = system: SK-MEL-5 melanoma
SK-OV-3 ovarian = system: SK-OV-3 ovarian
SNB-75 CNS = system: SNB-75 CNS
SR leukemia = system: SR leukemia
SW-620 colon = system: SW-620 colon
T-47D breast = system: T-47D breast
TK-10 renal = system: TK-10 renal
U251 CNS = system: U251 CNS
UACC-62 melanoma = system: UACC-62 melanoma
UO-31 renal = system: UO-31 renal
OVCAR-4 ovarian = system: OVCAR-4 ovarian
SF-295 CNS = system: SF-295 CNS
SK-MEL-2 melanoma = system: SK-MEL-2 melanoma
SN12C renal = system: SN12C renal
SNB-19 CNS = system: SNB-19 CNS
UACC-257 melanoma = system: UACC-257 melanoma

## COC(=O)/C=C1/OC(c2ccc(C)cc2C)=CC1=O
786-0 renal
  TGI: 24.2 µM
A498 renal
  TGI: 42.3 µM
ACHN renal
  TGI: 29.3 µM
BT-549 breast
  TGI: 29.9 µM
CAKI-1 renal
  TGI: 34.5 µM
CCRF-CEM leukemia
  TGI: > 100 µM
COLO 205 colon
  TGI: 30.2 µM
DU-145 prostate
  TGI: 30 µM
EKVX NSCLC
  TGI: > 100 µM
HCC-2998 colon
  TGI: 30.5 µM
HCT-116 colon
  TGI: 24.1 µM
HCT-15 colon
  TGI: 29.3 µM
HL-60(TB) leukemia
  TGI: > 100 µM
HOP-62 NSCLC
  TGI: 61.2 µM
HOP-92 NSCLC
  TGI: 45.6 µM
HS 578T breast
  TGI: 81.7 µM
HT29 colon
  TGI: 18.8 µM
IGROV1 ovarian
  TGI: 22 µM
K-562 leukemia
  TGI: 10.8 µM
KM12 colon
  TGI: 31.8 µM
LOX IMVI melanoma
  TGI: 17.6 µM
M14 melanoma
  TGI: 31.1 µM
MALME-3M melanoma
  TGI: 29.9 µM
MCF7 breast
  TGI: 28.3 µM
MDA-MB-231 breast
  TGI: 27.5 µM
MDA-MB-435
  TGI: 30.1 µM
MDA-N
  TGI: 36.4 µM
MOLT-4 leukemia
  TGI: > 100 µM
NCI-H226 lung
  TGI: 48.9 µM
NCI-H23 lung
  TGI: 61 µM
NCI-H460 lung
  TGI: 36.5 µM
NCI-H522 lung
  TGI: 43.3 µM
NCI/ADR-RES ovarian
  TGI: 42.3 µM
OVCAR-3 ovarian
  TGI: 60.1 µM
OVCAR-5 ovarian
  TGI: 31.7 µM
OVCAR-8 ovarian
  TGI: 37.4 µM
PC-3 prostate
  TGI: 34.9 µM
RPMI-8226 leukemia
  TGI: > 100 µM
RXF 393 renal
  TGI: 24.9 µM
SF-268 CNS
  TGI: 48.9 µM
SF-539 CNS
  TGI: 33 µM
SK-MEL-28 melanoma
  TGI: 36.3 µM
SK-MEL-5 melanoma
  TGI: 38.2 µM
SK-OV-3 ovarian
  TGI: 33.1 µM
SNB-75 CNS
  TGI: 29.4 µM
SR leukemia
  TGI: > 100 µM
SW-620 colon
  TGI: 10.4 µM
T-47D breast
  TGI: 38.4 µM
TK-10 renal
  TGI: 31.3 µM
U251 CNS
  TGI: 31.1 µM
UACC-62 melanoma
  TGI: 26.5 µM
UO-31 renal
  TGI: 30.5 µM

## O=S1(=O)c2ccccc2-c2nccc3ccnc1c23
786-0 renal
  TGI: > 100 µM
A498 renal
  TGI: 84.4 µM
ACHN renal
  TGI: 85.3 µM
BT-549 breast
  TGI: 35.4 µM
CAKI-1 renal
  TGI: 85.9 µM
CCRF-CEM leukemia
  TGI: > 100 µM
COLO 205 colon
  TGI: 65.8 µM
DU-145 prostate
  TGI: > 100 µM
EKVX NSCLC
  TGI: > 100 µM
HCC-2998 colon
  TGI: 28.6 µM
HCT-116 colon
  TGI: > 100 µM
HL-60(TB) leukemia
  TGI: > 100 µM
HOP-62 NSCLC
  TGI: > 100 µM
HOP-92 NSCLC
  TGI: > 100 µM
HS 578T breast
  TGI: > 100 µM
HT29 colon
  TGI: 23.2 µM
IGROV1 ovarian
  TGI: > 100 µM
K-562 leukemia
  TGI: > 100 µM
KM12 colon
  TGI: > 100 µM
LOX IMVI melanoma
  TGI: > 100 µM
M14 melanoma
  TGI: > 100 µM
MALME-3M melanoma
  TGI: > 100 µM
MCF7 breast
  TGI: > 100 µM
MDA-MB-231 breast
  TGI: 95.7 µM
MDA-MB-435
  TGI: > 100 µM
MDA-N
  TGI: > 100 µM
MOLT-4 leukemia
  TGI: 6.87 µM
NCI-H226 lung
  TGI: > 100 µM
NCI-H23 lung
  TGI: 44 µM
NCI-H460 lung
  TGI: 76.1 µM
NCI-H522 lung
  TGI: 29.9 µM
NCI/ADR-RES ovarian
  TGI: > 100 µM
OVCAR-3 ovarian
  TGI: > 100 µM
OVCAR-4 ovarian
  TGI: > 100 µM
OVCAR-5 ovarian
  TGI: > 100 µM
OVCAR-8 ovarian
  TGI: > 100 µM
PC-3 prostate
  TGI: > 100 µM
RPMI-8226 leukemia
  TGI: 85.6 µM
RXF 393 renal
  TGI: > 100 µM
SF-268 CNS
  TGI: > 100 µM
SF-295 CNS
  TGI: > 100 µM
SF-539 CNS
  TGI: > 100 µM
SK-MEL-2 melanoma
  TGI: > 100 µM
SK-MEL-28 melanoma
  TGI: > 100 µM
SK-MEL-5 melanoma
  TGI: 27.7 µM
SK-OV-3 ovarian
  TGI: > 100 µM
SN12C renal
  TGI: 94.1 µM
SNB-19 CNS
  TGI: 91.3 µM
SNB-75 CNS
  TGI: 83.7 µM
SW-620 colon
  TGI: > 100 µM
T-47D breast
  TGI: > 100 µM
TK-10 renal
  TGI: > 100 µM
U251 CNS
  TGI: > 100 µM
UACC-257 melanoma
  TGI: > 100 µM
UACC-62 melanoma
  TGI: 31.7 µM
UO-31 renal
  TGI: 59 µM
